Where two headings read alike, the source gives them in different places.
Key:
[1] = cited from earlier work; for solubility (in words): water; for water solubility at room temperature: pure (>95% w/w) compound, room temperature (25° C.)
[2] = cited from earlier work
[3] = Solubility in RO water at room temperature (25° C.) within 5 minutes, soluble if <10 FAU turbidity; type: physicochemical; details: crystalline material
Description: Hereinafter, unless specified otherwise, the solubility of material is determined in RO (reverse osmosis) water at room temperature (25° C.) within 5 minutes.
Hereinafter, where the solubility is expressed as “%”, it to be understood as number of grams of material soluble in 100 grams of solvent.
Hereinafter, the descriptive terms for solubility are provided according to definitions in Combined Compendium of Food Additive Specifications Vol. 4 (FAO JECFA Monographs 1, Rome 2006, page 41).
Procedure: Unless otherwise specified, transfer a known amount of the sample into a flask containing known amount of the specified solvent, shake for no less than 30 sec and no more than 5 min.”
The material is deemed soluble at certain concentration if the produced solution has <10 FAU (Formazin Attenuation Unit) turbidity value.

Compound | Rate of dissolution in H2O at 25° C. (descriptive) [2] | Rate of dissolution in H2O at 25° C. ([2]; in 5 minutes) | solubility, JECFA descriptive term [3] | water solubility at room temperature [1] | solubility (in words) [1] | also measured
C=C1C[C@@]23CC[C@H]4[C@@](C)(CCC[C@@]4(C)C(=O)O[C@@H]4O[C@H](CO)[C@@H](O)[C@H](O)[C@H]4O)[C@@H]2CC[C@]1(O[C@@H]1O[C@H](CO)[C@@H](O)[C@H](O[C@@H]2O[C@H](CO)[C@@H](O)[C@H](O)[C@H]2O)[C@H]1O[C@@H]1O[C@H](CO)[C@@H](O)[C@H](O)[C@H]1O)C3 [Form 1, Rebaudioside A] | Very low |  |  |  |  | solubility (in words) ([1]; listed as hydrate form of Rebaudioside A): lowest solubility; Rate of dissolution in H2O at 25° C. ([2]; in 60 minutes): (<0.2% in 60
C=C1C[C@@]23CC[C@H]4[C@@](C)(CCC[C@@]4(C)C(=O)O[C@@H]4O[C@H](CO)[C@@H](O)[C@H](O)[C@H]4O)[C@@H]2CC[C@]1(O[C@@H]1O[C@H](CO)[C@@H](O)[C@H](O[C@@H]2O[C@H](CO)[C@@H](O)[C@H](O)[C@H]2O)[C@H]1O[C@@H]1O[C@H](CO)[C@@H](O)[C@H](O)[C@H]1O)C3 [Form 2, Rebaudioside A] | Intermediate | (<30% in 5 |  |  |  | 
C=C1C[C@@]23CC[C@H]4[C@@](C)(CCC[C@@]4(C)C(=O)O[C@@H]4O[C@H](CO)[C@@H](O)[C@H](O)[C@H]4O)[C@@H]2CC[C@]1(O[C@@H]1O[C@H](CO)[C@@H](O)[C@H](O[C@@H]2O[C@H](CO)[C@@H](O)[C@H](O)[C@H]2O)[C@H]1O[C@@H]1O[C@H](CO)[C@@H](O)[C@H](O)[C@H]1O)C3 [Form 3, Rebaudioside A] | High | (>30% in |  |  |  | 
C=C1C[C@@]23CC[C@H]4[C@@](C)(CCC[C@@]4(C)C(=O)O[C@@H]4O[C@H](CO)[C@@H](O)[C@H](O)[C@H]4O)[C@@H]2CC[C@]1(O[C@@H]1O[C@H](CO)[C@@H](O)[C@H](O[C@@H]2O[C@H](CO)[C@@H](O)[C@H](O)[C@H]2O)[C@H]1O[C@@H]1O[C@H](CO)[C@@H](O)[C@H](O)[C@H]1O)C3 [Form 4, Rebaudioside A] | High | (>35% in |  |  |  | solubility (in words) ([1]; listed as rebaudioside A amorphous forms): high solubility
C=C1C[C@@]23CC[C@H]4[C@@](C)(CCC[C@@]4(C)C(=O)O[C@@H]4O[C@H](CO)[C@@H](O)[C@H](O)[C@H]4O[C@@H]4O[C@H](CO)[C@@H](O)[C@H](O)[C@H]4O)[C@@H]2CC[C@]1(O[C@@H]1O[C@H](CO)[C@@H](O)[C@H](O[C@@H]2O[C@H](CO)[C@@H](O)[C@H](O)[C@H]2O)[C@H]1O[C@@H]1O[C@H](CO)[C@@H](O)[C@H](O)[C@H]1O)C3 [Rebaudioside D] |  |  | very slightly soluble | less than 0.05% | very low water solubility | 
C=C1C[C@@]23CC[C@H]4[C@@](C)(CCC[C@@]4(C)C(=O)O[C@@H]4O[C@H](CO)[C@@H](O)[C@H](O[C@@H]5O[C@H](CO)[C@@H](O)[C@H](O)[C@H]5O)[C@H]4O[C@@H]4O[C@H](CO)[C@@H](O)[C@H](O)[C@H]4O)[C@@H]2CC[C@]1(O[C@@H]1O[C@H](CO)[C@@H](O)[C@H](O[C@@H]2O[C@H](CO)[C@@H](O)[C@H](O)[C@H]2O)[C@H]1O[C@@H]1O[C@H](CO)[C@@H](O)[C@H](O)[C@H]1O)C3 [Rebaudioside M] |  |  | very slightly soluble | about 0.1% | very low water solubility | solubility (in words) ([1]; listed as rebaudioside M): poor aqueous solubility

From patent US11149050B2, “Highly soluble steviol glycosides” (PureCircle USA Inc., priority 2016, dated 2021)
